Source: publication PMC5650142, “GPR40 partial agonists and AgoPAMs: Differentiating effects on glucose and hormonal secretions in the rodent” (PLoS ONE, 2017)
Where “and” joins values, the source holds several entries; their conditions need not be identical. Equal entries are not always repeated.

Tests used:
[1] = test system: pancreatic islets from wild type and GPR40−/− mice; experiment: Isolated pancreatic islets static GDIS assay (insulin, glucagon secretion); assay type: cell-based, mouse; design: Islet insulin / Islet insulin, mean: unit not given here; conditions: for Islet Glucagon / Islet insulin: individual replicates; for Islet Glucagon, mean / Islet insulin, mean: mean of replicates
Experimental: Pancreatic islets of Langerhans were isolated from wild type and GPR40^−/− mice (littermates) by collagenase digestion and discontinuous Ficoll gradient separation. […] Insulin secretion was determined by a 1-h static incubation in Krebs-Ringer bicarbonate (KRB) buffer in a 96-well format as previously described. […] The buffer was removed from the wells at the end of the incubation and assayed for insulin levels using the Insulin ELISA kit (ALPCO, Salem, NH) and glucagon level using glucagon ELISA kit (ALPCO, Salem, NH).

GK rats = experiment: GK rat chronic efficacy (28 days: glucose, food intake, body weight, GLP-1, GIP, PYY, insulin, glucagon); assay type: in vivo; design: Food Intake Over Time (Fig 3C) / Total Body Weight Change Over Time / Active GLP-1 Levels Over Time: unit not given here; conditions: for Total Body Weight Change Over Time / Active GLP-1 Levels Over Time / GIP Levels Over Time / PYY Levels Over Time / Plasma Insulin Over Time: GK rats; for GIP Levels Over Time / PYY Levels Over Time: in pg/mL (unit assumed)
Procedure, shortened: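 Daily oral gavage for 28 days, AP1 or AP3 at 30 mg/kg in 0.5% methylcellulose; MK-8666 at 30 mg/kg in feed. Fed glucose, food intake and weight on days 10, 17, 23, 28; glucose, GLP-1, GIP, PYY after 6 h fast, 1 h post dose. Hormones by MSD immunoassay or bead panel.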

SMILES: Cc1cc(OCCCS(C)(=O)=O)cc(C)c1-c1cccc(COc2cc3c(cn2)[C@H]2[C@@H](C3)[C@@H]2C(=O)O)c1 [MK-8666]
- Islet Glucagon ([1]; KO mouse islets, G2, 10 uM): 18.0653 pg/ml/ islet and 18.1157 pg/ml/ islet and 9.579 pg/ml/ islet and 14.1337 pg/ml/ islet and 15.8166 pg/ml/ islet and 22.7674 pg/ml/ islet
- Islet insulin ([1]; KO mouse islets, G2, 10 uM): 0.7614 and 0.3958 and 0.3055 and 0.5799 and 0.6404 and 0.3029
- Islet Glucagon, mean ([1]; KO mouse islets, G2, 10 uM): 16.4129 pg/ml/ islet
- Islet insulin, mean ([1]; KO mouse islets, G2, 10 uM): 0.4977
- Islet Glucagon ([1]; KO mouse islets, G16, 10 uM): 11.8893 pg/ml/ islet and 4.442 pg/ml/ islet and 4.11 pg/ml/ islet and 16.6705 pg/ml/ islet and 9.138 pg/ml/ islet and 11.4903 pg/ml/ islet and 5.5193 pg/ml/ islet and 2.29 pg/ml/ islet and 10.7282 pg/ml/ islet and 2.062 pg/ml/ islet
- Islet insulin ([1]; KO mouse islets, G16, 10 uM): 1.241 and 2.484 and 3.15 and 0.9538 and 3.706 and 3.098 and 3.161 and 1.875 and 3.378 and 6.11
- Islet Glucagon, mean ([1]; KO mouse islets, G16, 10 uM): 7.834 pg/ml/ islet
- Islet insulin, mean ([1]; KO mouse islets, G16, 10 uM): 2.9156
- Islet Glucagon ([1]; WT mouse islets, G2, 10 uM): 19.4342 pg/ml/ islet and 13.1173 pg/ml/ islet and 22.868 pg/ml/ islet and 18.9373 pg/ml/ islet and 12.9706 pg/ml/ islet and 18.154 pg/ml/ islet
- Islet Glucagon, mean ([1]; WT mouse islets, G2, 10 uM): 17.5802 pg/ml/ islet
- Islet insulin, mean ([1]; WT mouse islets, G2, 10 uM): 0.394
- Islet Glucagon ([1]; WT mouse islets, G16, 10 uM): 6.349 pg/ml/ islet and 9.927 pg/ml/ islet and 6.387 pg/ml/ islet and 12.9481 pg/ml/ islet and 7.932 pg/ml/ islet and 7.688 pg/ml/ islet and 3.944 pg/ml/ islet and 9.1471 pg/ml/ islet and 7.361 pg/ml/ islet
- Islet Glucagon, mean ([1]; WT mouse islets, G16, 10 uM): 7.965 pg/ml/ islet
- Islet insulin, mean ([1]; WT mouse islets, G16, 10 uM): 4.275
- glucagon secretion from islets ([1]; WT mouse islets, ex vivo): not
- Glucose Over time (S2 File, Fig 2A) (GK rats; 30 mpk, Day 0, individual animals): 167 mg/dL and 165 mg/dL and 192 mg/dL and 168 mg/dL and 160 mg/dL and 197 mg/dL and 172 mg/dL and 183 mg/dL and 169 mg/dL and 161 mg/dL
- Food Intake Over Time (Fig 3C) (GK rats; 30 mpk, Day 10): 20.6389 and 19.3556 and 19.3778 and 21 and 18.9
- Glucose Over time (S2 File, Fig 2A) (GK rats; 30 mpk, Day 10, individual animals): 128 mg/dl and 123 mg/dl and 142 mg/dl and 120 mg/dl and 139 mg/dl (2×) and 127 mg/dl and 130 mg/dl and 140 mg/dl and 115 mg/dl
- Food Intake Over Time (Fig 3C) (GK rats; 30 mpk, Day 17): 18.0071 and 18.5429 and 17.1786 and 18.0357 and 16.8714
- Glucose Over time (S2 File, Fig 2A) (GK rats; 30 mpk, Day 17, individual animals): 130 mg/dL and 155 mg/dL and 159 mg/dL and 140 mg/dL and 132 mg/dL and 137 mg/dL and 120 mg/dL and 138 mg/dL and 110 mg/dL and 102 mg/dL
- Food Intake Over Time (Fig 3C) (GK rats; 30 mpk, Day 23): 18.6833 and 18.8833 and 18.4167 and 19.5083 and 18.1917
- Glucose Over time (S2 File, Fig 2A) (GK rats; 30 mpk, Day 23, individual animals): 129 mg/dL and 132 mg/dL and 148 mg/dL and 138 mg/dL and 131 mg/dL and 124 mg/dL and 143 mg/dL and 144 mg/dL and 119 mg/dL and 122 mg/dL
- Food Intake Over Time (Fig 3C) (GK rats; 30 mpk, Day 28): 18.66 and 18.67 and 17.38 and 21.2 and 17.95
- Glucose Over time (S2 File, Fig 2A) (GK rats; 30 mpk, Day 28, individual animals): 130 mg/dL and 128 mg/dL and 147 mg/dL and 122 mg/dL and 143 mg/dL and 136 mg/dL and 123 mg/dL and 135 mg/dL and 131 mg/dL and 116 mg/dL
- Fasted glucose on day 28 (Fig 3B) (GK rats; 30 mpk, day 28, fasted, individual animals): 119 and 118 and 107 and 100 and 94 and 104 and 124 and 102 and 96 and 105
- Fed glucose on day 28 (Fig 3B) (GK rats; 30 mpk, day 28, fed, individual animals): 123 and 135 and 131 and 116 and 130 and 128 and 147 and 122 and 143 and 136
- gut hormones (total and active GLP-1, GIP, PYY) (GK rats; GK rat, 30 mg/kg, 4 weeks of treatment): no effect
- Plasma Glucagon (GK rats; GK rat, 30 mg/kg, 28 days): trend of increasing glucagon on day 28
- body weight (GK rats; GK rat, 30 mg/kg, 28 days): no effect
- fed blood glucose vs vehicle controls (GK rats; GK rat, 30 mg/kg, 28 days, days 10–28): significant effect on day 28 only
- Total Body Weight Change Over Time (GK rats; 30 mpk, Day 0, individual animals (Fig 3D)): 0
- Active GLP-1 Levels Over Time (GK rats; 30 mpk, Day 0, individual animals (Fig 4B), 30 mg/kg): 1.901 and 1.26 and 2.116 and 3.51 and 2.184 and 0.8674 and 1.257 and 2.71 and 1.494 and 1.111
- GIP Levels Over Time (GK rats; 30 mpk, Day 0, individual animals (Fig 4C), 30 mg/kg): 12.65 and 5.7 and 68.06 and 68.73 and 44.75 and 71.88 and 53.28 and 113.97 and 32.85 and 33.08
- PYY Levels Over Time (GK rats; 30 mpk, Day 0, individual animals (Fig 4D), 30 mg/kg): 104.9 and 81.92 and 88.3 and 95.99 and 52.32 and 50.41 and 79.99 and 158.3 and 57.72 and 25.52
- Plasma Insulin Over Time (GK rats; 30 mpk, Day 0, individual animals (Fig 5A), 30 mg/kg): 0.7825 ng/mL and 1.015 ng/mL and 2.348 ng/mL and 1.621 ng/mL and 2.16 ng/mL and 2.5584 ng/mL and 2.141 ng/mL and 1.201 ng/mL and 2.632 ng/mL and 2.493 ng/mL
- Total Body Weight Change Over Time (GK rats; 30 mpk, Day 10, individual animals (Fig 3D), 30 mg/kg): 20 and 26 and 18 and 13 and 22 and 3 and 11 and 21 and 12 and 4
- Active GLP-1 Levels Over Time (GK rats; 30 mpk, Day 10, individual animals (Fig 4B), 30 mg/kg): 1.599 and 1.212 and 2.275 and 1.828 and 2.945 and 2.154 and 1.327 and 1.669 and 1.343 and 1.536
- GIP Levels Over Time (GK rats; 30 mpk, Day 10, individual animals (Fig 4C), 30 mg/kg): 39.32 and 74.04 and 79.4 and 80.59 and 90.86 and 47.57 and 50.25 and 47.43 and 58.38 and 34.5
- PYY Levels Over Time (GK rats; 30 mpk, Day 10, individual animals (Fig 4D), 30 mg/kg): 68.18 and 84.22 and 84.94 and 98.89 and 97.3 and 93.71 and 80.17 and 75.96 and 87.42 and 74.37
- Plasma Insulin Over Time (GK rats; 30 mpk, Day 10, individual animals (Fig 5A), 30 mg/kg): 1.605 ng/mL and 1.432 ng/mL and 1.588 ng/mL and 2.061 ng/mL and 1.507 ng/mL and 2.521 ng/mL and 2.104 ng/mL and 0.5711 ng/mL and 1.866 ng/mL and 2.359 ng/mL
- Total Body Weight Change Over Time (GK rats; 30 mpk, Day 17, individual animals (Fig 3D), 30 mg/kg): 34 (2×) and 41 and 29 and 32 (2×) and 11 and 22 (2×) and 9
- Active GLP-1 Levels Over Time (GK rats; 30 mpk, Day 17, individual animals (Fig 4B), 30 mg/kg): 0.86 and 0.3 and 1.09 and 0.6 and 0.76 and 1.16 and 0.79 and 0.57 (2×) and 1.44
- GIP Levels Over Time (GK rats; 30 mpk, Day 17, individual animals (Fig 4C), 30 mg/kg): 72.64 and 104.54 and 131.52 and 71.84 and 86.95 and 58.88 and 85.41 and 17.08 and 86.39 and 75.71
- PYY Levels Over Time (GK rats; 30 mpk, Day 17, individual animals (Fig 4D), 30 mg/kg): 84.67 and 106.51 and 99.04 and 75.86 and 81.98 and 124.9 and 74.42 and 49.36 and 77.72 and 64.96
- Plasma Insulin Over Time (GK rats; 30 mpk, Day 17, individual animals (Fig 5A), 30 mg/kg): 2.096 ng/mL and 1.971 ng/mL and 2.299 ng/mL and 1.835 ng/mL and 1.8388 ng/mL and 1.142 ng/mL and 2.593 ng/mL and 0.8411 ng/mL and 2.087 ng/mL and 1.846 ng/mL
- Total Body Weight Change Over Time (GK rats; 30 mpk, Day 23, individual animals (Fig 3D), 30 mg/kg): 40 and 50 and 44 and 31 (2×) and 12 and 29 and 38 and 27 and 17
- Total Body Weight Change Over Time (GK rats; 30 mpk, Day 28, individual animals (Fig 3D), 30 mg/kg): 42 (2×) and 59 and 53 and 39 and 16 and 38 and 47 and 36 and 23
- Active GLP-1 Levels Over Time (GK rats; 30 mpk, Day 28, individual animals (Fig 4B), 30 mg/kg): 1.155 and 1.013 and 1.22 and 0.9448 and 0.9241 and 0.9389 and 0.7791 and 1.439 and 1.063 and 0.9152
- GIP Levels Over Time (GK rats; 30 mpk, Day 28, individual animals (Fig 4C), 30 mg/kg): 17.53 and 7.25 and 46.24 and 76.52 and 12.03 and 22.4 and 15.13 and 16.8 and 5.84
- PYY Levels Over Time (GK rats; 30 mpk, Day 28, individual animals (Fig 4D), 30 mg/kg): 66.63 and 94.86 and 108.27 and 72.37 and 63.96 and 49.91 and 49.72 and 83.74 and 62.98 and 45.13
- Plasma Insulin Over Time (GK rats; 30 mpk, Day 28, individual animals (Fig 5A), 30 mg/kg): 1.012 ng/mL and 1.26 ng/mL and 1.45 ng/mL and 2.851 ng/mL and 1.138 ng/mL and 1.638 ng/mL and 1.554 ng/mL and 1.1554 ng/mL and 1.58 ng/mL and 1.305 ng/mL
